US8809342B2, “Glucagon receptor modulators” (Pfizer Inc., priority 2010, dated 2014)

Each compound was assayed against T1, human glucagon receptor (Homo sapiens, UniProt P47871) (assay: Glucagon cAMP assay (Cisbio cAMP detection)).
T1 construct: expressed in transfected cells; host or cells: CHO-K1 cells, stably transfected
T1 sequence (P47871 26-477): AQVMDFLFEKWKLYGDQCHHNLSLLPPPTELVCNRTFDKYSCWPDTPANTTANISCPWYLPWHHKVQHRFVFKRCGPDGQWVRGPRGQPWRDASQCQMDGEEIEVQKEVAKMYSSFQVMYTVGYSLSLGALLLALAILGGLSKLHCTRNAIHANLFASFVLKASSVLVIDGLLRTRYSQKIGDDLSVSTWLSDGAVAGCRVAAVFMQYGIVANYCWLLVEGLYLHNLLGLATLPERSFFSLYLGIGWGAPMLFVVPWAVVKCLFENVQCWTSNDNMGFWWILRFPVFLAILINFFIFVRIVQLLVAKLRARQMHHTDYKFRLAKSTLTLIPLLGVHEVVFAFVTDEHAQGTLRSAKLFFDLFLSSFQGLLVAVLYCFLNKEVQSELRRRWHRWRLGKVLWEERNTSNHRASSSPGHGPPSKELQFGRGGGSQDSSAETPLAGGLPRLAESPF
Assay type: cell-based
Description: The Cisbio cAMP detection assay is used to determine the ability of punitive glucagon antagonist to block glucagon induced cAMP production. Potential glucagon antagonists are re-suspended and diluted in 100% DMSO. Prior to use in the Glucagon cAMP assay 100×DMSO compound stocks are diluted 20× with DMEM-F12 media (Invitrogen) containing either 0.1% or 4% BSA. 2 uls of 5× compound stocks are spotted into the appropriate wells of low binding white solid bottom 384 well plates (Corning). 2 uls of 5% DMSO or known glucagon antagonist are added to each plate to define the assay window. CHOK1 cells stably transfected with the human glucagon receptor are removed from culture flasks with cell dissociation buffer. Cell pellets are re-suspended, at a concentration of 8.3e^5 cells/ml in DMEM-F12 with or without 4% BSA and 200 uM IBMX. 6 uls of cell suspensions are added to the assay plates. Plates are incubated for 20 min at room temperature prior to the addition of a 100 pM challenge dose of glucagon. On a separate plate glucagon dose response curves are run to determine the EC50 of glucagon. After a 30 min room temperature incubation the reaction is terminated by the addition of lysis buffer containing the cAMP detection reagents. Plates are incubated for an additional 60 min at room temperature prior to being read on the Perkin Elmer fluorescent plate reader. Raw is converted to nM of cAMP produced based on a cAMP standard curve. Converted data is then analyzed using the Pfizer data analysis program. IC50 values are determined from the generated sigmoidal dose response curves. Kb values are the calculated using a modified Cheng-Prusoff equation.
A Kb of 31 nM was found for `O=C(O)CCNC(=O)c1ccc(NC(c2cnc(-c3ccc(C(F)(F)F)cc3)nc2)C2CCCCC2)nc1` (racemic) [Example 4.2, (+/−)-N-({6-[(cyclohexyl{2-[4-(trifluoromethyl)phenyl]pyrimidin-5-yl}methyl)amino]pyridin-3-yl}carbonyl)-beta-alanine] in this work. A Kb of 99 nM was found for `CCCC(Nc1cnc(-c2ccc(C(F)(F)F)cc2)cn1)c1ccc(C(=O)NCCC(=O)O)cc1` (racemic) [Example 4.3, (±)-3-(4-(1-((5-(4-(trifluoromethyl)phenyl)pyrazin-2-yl)amino)butyl)benzamido)propanoic acid] in this work. A Kb of 220 nM was found for `O=C(O)CCNC(=O)c1ccc(NC(c2ccc(-c3ccc(C(F)(F)F)cc3)cc2)C2CCOCC2)nc1` (racemic) [Example 4.7, (±)-3-(6-(((tetrahydro-2H-pyran-4-yl)(4′-(trifluoromethyl)-[1,1′-biphenyl]-4-yl)methyl)amino)nicotinamido)propanoic acid] in this work. A Kb of 200 nM was found for `CCCC(Nc1ccc(C(=O)NCCC(=O)O)cn1)c1ccc(-c2ccc(C(F)(F)F)cc2)c(C#N)c1` (racemic) [Example 4.8, (±)-3-(6-((1-(2-cyano-4′-(trifluoromethyl)-[1,1′-biphenyl]-4-yl)butyl)amino)nicotinamido)propanoic acid] in this work. A Kb of 700 nM was found for `O=C(O)CCNC(=O)c1ccc(NC(CCC(F)(F)F)c2ccc(-c3ccc(C(F)(F)F)cc3)cc2)nc1` (racemic) [Example 4.13, (+/−)-3-(6-(4,4,4-trifluoro-1-(4′-(trifluoromethyl)biphenyl-4-yl)butylamino)nicotinamido)propanoic acid] in this work. A Kb of 53 nM was found for `CC(C)CC(Nc1ccc(C(=O)NCCC(=O)O)cn1)c1ccc(-c2ccc(C(F)(F)F)cn2)cc1` (racemic) [Example 4.22, (+/−)-3-(6-(3-methyl-1-(4-(5-(trifluoromethyl)pyridin-2-yl)phenyl)butylamino)nicotinamido)propanoic acid] in this work. A Kb of 53 nM was found for `CC(C)CC(Nc1ccc(C(=O)N(C)CCC(=O)O)cn1)c1ccc(-c2ccc(C(F)(F)F)cc2)cc1` (single isomer, unassigned) [Example 4.6, 3-(N-methyl-6-((3-methyl-1-(4′-(trifluoromethyl)-[1,1′-biphenyl]-4-yl)butyl)amino)nicotinamido)propanoic acid (single enantiomer)] in this work. A Kb of 990 nM was found for `CC(C)C(Nc1ccc(C(=O)NCCC(=O)O)cn1)c1ccc(-c2ccc(C(F)(F)F)cc2)cc1` (single isomer, unassigned; (+)) [Example 1.14, (+)-3-(6-(2-methyl-1-(4′-(trifluoromethyl)biphenyl-4-yl)propylamino)nicotinamido)propanoic acid] in this work. A Kb of 78 nM was found for `CC(C)C(Nc1ccc(C(=O)NCCC(=O)O)cn1)c1ccc(-c2ccc(C(F)(F)F)cc2)cc1` (single isomer, unassigned; (-)) [Example 1.15, (−)-3-(6-(2-methyl-1-(4′-(trifluoromethyl)biphenyl-4-yl)propylamino)nicotinamido) propanoic acid] in this work. A Kb of 2900 nM was found for `CC(C)CC(Nc1ncc(C(=O)NCCC(=O)O)cn1)c1ccc(-c2ccc(C(F)(F)F)cc2)cc1` (single isomer, unassigned; isomer 1) [Example 1.5, 3-(2-(3-methyl-1-(4′-(trifluoromethyl)biphenyl-4-yl)butylamino)pyrimidine-5-carboxamido)propanoic acid, Isomer 1] in this work. A Kb of 1000 nM was found for `CCCC(Nc1ccc(C(=O)NCCC(=O)O)cn1)c1ccc(-c2ccc(C(F)(F)F)cc2)cc1` (single isomer, unassigned; isomer 1) [Example 1.8, 3-(6-(1-(4′-(trifluoromethyl)biphenyl-4-yl)butylamino)nicotinamido) propanoic acid, Isomer 1] in this work. A Kb of 560 nM was found for `CCC(Nc1ccc(C(=O)NCCC(=O)O)cn1)c1ccc(-c2ccc(C(F)(F)F)cc2)cc1` (single isomer, unassigned; isomer 1) [Example 1.12, 3-(6-(1-(4′-(trifluoromethyl)biphenyl-4-yl)propylamino)nicotinamido) propanoic acid, Isomer 1] in this work. A Kb of 1100 nM was found for `CC(C)CC(Nc1cnc(C(=O)NCCC(=O)O)cn1)c1ccc(-c2ccc(C(F)(F)F)cc2)cc1` (single isomer, unassigned; isomer 1) [Example 1.17, 3-(5-(3-methyl-1-(4′-(trifluoromethyl)biphenyl-4-yl)butylamino)pyrazine-2-carboxamido)propanoic acid, Isomer 1] in this work. A Kb of 54 nM was found for `Cc1cc(NC(CC(C)C)c2ccc(C(=O)NCCC(=O)O)cn2)cc(C)c1-c1ccc(C(F)(F)F)cc1` (single isomer, unassigned; isomer 1) [Example 2.2, 3-(6-(1-(2,6-dimethyl-4′-(trifluoromethyl)biphenyl-4-ylamino)-3-methylbutyl)nicotinamido)propanoic acid, Isomer 1] in this work. A Kb of 760 nM was found for `CC(C)CC(Nc1ccc(-c2ccc(C(F)(F)F)cc2)cc1)c1ccc(C(=O)NCCC(=O)O)cn1` (single isomer, unassigned; isomer 1) [Example 2.5, 3-(6-(3-methyl-1-(4′-(trifluoromethyl)biphenyl-4-ylamino)butyl)nicotinamido)propanoic acid, Isomer 1] in this work. A Kb of 120 nM was found for `CCCC(Nc1cnc(-c2ccc(C(F)(F)F)cc2)nc1)c1ccc(C(=O)NCCC(=O)O)cc1` (single isomer, unassigned; isomer 1) [Example 2.16, 3-(4-(1-(2-(4-(trifluoromethyl)phenyl)pyrimidin-5-ylamino)butyl)benzamido)propanoic acid, Isomer 1] in this work. A Kb of 180 nM was found for `Cc1cc(NC(CC(C)C)c2ccc(C(=O)NCCC(=O)O)cn2)cnc1-c1ccc(Cl)cc1` (single isomer, unassigned; isomer 1) [Example 4.16, 3-(6-(1-(6-(4-chlorophenyl)-5-methylpyridin-3-ylamino)-3-methylbutyl)nicotinamido)propanoic acid, Isomer 1] in this work. A Kb of 61 nM was found for `CC(C)C[C@@H](Nc1ccc(C(=O)NCCC(=O)O)cn1)c1ccc(-c2ccc(C(F)(F)F)cc2)nc1` (single isomer, unassigned; isomer 1) [Example 4.20, 3-(6-(3-methyl-1-(6-(4-(trifluoromethyl)phenyl)pyridin-3-yl)butylamino)nicotinamido)propanoic acid, Isomer 1] in this work. A Kb of 210 nM was found for `CC(C)CC(Nc1ncc(C(=O)NCCC(=O)O)cn1)c1ccc(-c2ccc(C(F)(F)F)cc2)cc1` (single isomer, unassigned; isomer 2) [Example 1.6, 3-(2-(3-methyl-1-(4′-(trifluoromethyl)biphenyl-4-yl)butylamino)pyrimidine-5-carboxamido)propanoic acid, Isomer 2] in this work. A Kb of 130 nM was found for `CCCC(Nc1ccc(C(=O)NCCC(=O)O)cn1)c1ccc(-c2ccc(C(F)(F)F)cc2)cc1` (single isomer, unassigned; isomer 2) [Example 1.9, 3-(6-(1-(4′-(trifluoromethyl)biphenyl-4-yl)butylamino)nicotinamido) propanoic acid, Isomer 2] in this work. A Kb of 150 nM was found for `CCC(Nc1ccc(C(=O)NCCC(=O)O)cn1)c1ccc(-c2ccc(C(F)(F)F)cc2)cc1` (single isomer, unassigned; isomer 2) [Example 1.13, 3-(6-(1-(4′-(trifluoromethyl)biphenyl-4-yl)propylamino)nicotinamido) propanoic acid, Isomer 2] in this work. A Kb of 120 nM was found for `CC(C)CC(Nc1cnc(C(=O)NCCC(=O)O)cn1)c1ccc(-c2ccc(C(F)(F)F)cc2)cc1` (single isomer, unassigned; isomer 2) [Example 1.18, 3-(5-(3-methyl-1-(4′-(trifluoromethyl)biphenyl-4-yl)butylamino)pyrazine-2-carboxamido)propanoic acid, Isomer 2] in this work. A Kb of 500 nM was found for `CC(C)CC(Nc1ccc(-c2ccc(C(F)(F)F)cc2)cc1)c1ccc(C(=O)NCCC(=O)O)cn1` (single isomer, unassigned; isomer 2) [Example 2.6, 3-(6-(3-methyl-1-(4′-(trifluoromethyl)biphenyl-4-ylamino)butyl)nicotinamido)propanoic acid, Isomer 2] in this work. A Kb of 420 nM was found for `CCCC(Nc1cnc(-c2ccc(C(F)(F)F)cc2)nc1)c1ccc(C(=O)NCCC(=O)O)cc1` (single isomer, unassigned; isomer 2) [Example 2.17, 3-(4-(1-(2-(4-(trifluoromethyl)phenyl)pyrimidin-5-ylamino)butyl)benzamido)propanoic acid, Isomer 2] in this work. A Kb of 980 nM was found for `CC(C)C[C@@H](Nc1ccc(C(=O)NCCC(=O)O)cn1)c1ccc(-c2ccc(C(F)(F)F)cc2)nc1` (single isomer, unassigned; isomer 2) [Example 4.21, 3-(6-(3-methyl-1-(6-(4-(trifluoromethyl)phenyl)pyridin-3-yl)butylamino)nicotinamido) propanoic acid, Isomer 2] in this work. A Kb of 1700 nM was found for `CC(C)C[C@@H](Nc1ccc(C(=O)NCCC(=O)O)cn1)c1ccc(-c2ccc(C(F)(F)F)cc2)cc1` [Example 1.1, (R)-3-(6-(3-methyl-1-(4′-(trifluoromethyl)biphenyl-4-yl)butylamino)nicotinamido)propanoic acid] in this work. A Kb of 73 nM was found for `CC(C)C[C@H](Nc1ccc(C(=O)NCCC(=O)O)cn1)c1ccc(-c2ccc(C(F)(F)F)cc2)cc1` [Example 1.3, (−)-(S)-3-(6-(3-methyl-1-(4′-(trifluoromethyl)biphenyl-4-yl)butylamino)nicotinamido)propanoic acid] in this work.
